According to PubChem BioAssay (NCI):
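Cultured in 96-well plates, cells were exposed to test compound for 48 hours across five concentrations. GI50: concentration for 50% inhibition of growth. Definition used: TGI = concentration required for complete inhibition of growth.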

Key:
Assay in all cases: NCI-60 cell line screen, 48 h
K-562 leukemia = tested on: K-562 leukemia
HL-60(TB) leukemia = tested on: HL-60(TB) leukemia
786-0 renal = tested on: 786-0 renal
NCI-H23 lung = tested on: NCI-H23 lung
SK-MEL-2 melanoma = tested on: SK-MEL-2 melanoma
M14 melanoma = tested on: M14 melanoma
COLO 205 colon = tested on: COLO 205 colon
HOP-92 NSCLC = tested on: HOP-92 NSCLC
T-47D breast = tested on: T-47D breast
NCI/ADR-RES ovarian = tested on: NCI/ADR-RES ovarian

Row | Compound | TGI (K-562 leukemia) [µM] | TGI (HL-60(TB) leukemia) [µM] | TGI (786-0 renal) [µM] | TGI (NCI-H23 lung) [µM] | TGI (SK-MEL-2 melanoma) [µM] | TGI (M14 melanoma) [µM] | TGI (COLO 205 colon) [µM] | TGI (HOP-92 NSCLC) [µM] | GI50 (K-562 leukemia) [µM] | GI50 (T-47D breast) [µM] | TGI (T-47D breast) [µM] | GI50 (786-0 renal) [µM] | GI50 (HOP-92 NSCLC) [µM] | GI50 (NCI-H23 lung) [µM] | GI50 (SK-MEL-2 melanoma) [µM] | GI50 (M14 melanoma) [µM] | GI50 (COLO 205 colon) [µM] | TGI (NCI/ADR-RES ovarian) [µM] | GI50 (HL-60(TB) leukemia) [µM] | GI50 (NCI/ADR-RES ovarian) [µM]
1 | C=C1c2[nH]c3c([N+](=O)[O-])c(OC)ccc3c2CCN1C(C)=O | > 100 | > 100 | > 100 | > 100 | > 100 | > 100 | > 100 | – | – | – | – | – | – | – | – | – | – | – | – | –
2 | Cc1[nH]c2ccccc2c1C1Cc2ccccc2N1C(=O)/C=C/C(=O)O (configuration not stated) | > 100 | > 100 | > 100 | > 100 | > 100 | > 100 | > 100 | – | – | – | – | – | – | – | – | – | – | – | – | –
3 | CN1c2ccccc2N(C)C23N(C)c4ccccc4N(C)C12N(C)c1ccccc1N3C (configuration not stated) | > 100 | > 100 | > 100 | > 100 | > 100 | > 100 | > 100 | > 100 | – | – | – | – | – | – | – | – | – | – | – | –
4 | O=C(NN1C(=O)CSC12CCCC2)c1[nH]c2ccc(Br)cc2c1-c1ccccc1 | 43.2 | – | > 100 | > 100 | > 100 | > 100 | > 100 | > 100 | 18.7 | 39.1 | > 100 | 22.3 | 33.8 | 41.1 | 69 | 49.1 | 53.4 | – | – | –
5 | C[C@]12CC[C@H]3[C@@H](CC[C@]4(O)C[C@@H](O)CC[C@]34/C=N/O)[C@@]1(O)CC[C@@H]2C1=COC(=O)C1 | 0.93 | – | 0.362 | 0.272 | 0.587 | 0.657 | 1.33 | 1.06 | – | – | 0.975 | – | – | – | – | – | – | 0.604 | – | –
6 | O=C(c1ccccc1)c1cccc(C(=O)c2ccccc2)c1 | > 100 | – | > 100 | > 100 | > 100 | > 100 | > 100 | > 100 | – | – | – | – | – | – | – | – | – | – | – | –
7 | Cc1ccc(N2C(=O)C3C=CC(n4[nH]c(=O)n(Cc5ccccc5)c4=O)CC3C2=O)cc1 (configuration not stated) | > 100 | > 100 | > 100 | > 100 | > 100 | > 100 | > 100 | > 100 | – | – | – | – | – | – | – | – | – | – | – | –
8 | O=C(Nc1ccc(Cl)c(Cl)c1)O/N=C\c1c(Cl)ccc([N+](=O)[O-])c1Cl | 6.56 | 3.13 | 13.5 | 9.7 | 4.98 | 8.18 | 4.81 | – | 0.825 | 0.778 | 3.54 | 3.96 | – | 2.95 | 2.34 | 2.44 | 2.4 | 17.2 | 1.18 | 4.33
9 | CC(=O)C1C(=O)C(=O)N(c2ccccc2C(C)C)C1=O (configuration not stated) | > 100 | > 100 | > 100 | > 100 | > 100 | > 100 | > 100 | > 100 | – | – | – | – | – | – | – | – | – | – | – | –
10 | C[Si](C)(C)c1ccc(-c2sc(-c3ccc([Si](C)(C)C)s3)c3c2C[Si]2(C3)Cc3c(-c4ccc([Si](C)(C)C)s4)sc(-c4ccc([Si](C)(C)C)s4)c3C2)s1 | > 100 | > 100 | > 100 | > 100 | – | > 100 | > 100 | > 100 | – | – | – | – | – | – | – | – | – | – | – | –
11 | CCCOC(=O)N1CCN(/[N+]([O-])=N/Oc2ccc([N+](=O)[O-])cc2[N+](=O)[O-])CC1 | > 100 | 8.15 | 2.95 | 5.34 | 7.78 | – | 6.21 | – | 0.505 | – | – | 1 | – | 2.25 | 2.71 | – | 2.59 | > 100 | 0.727 | 3.31
12 | C/C=C(/C)C(=O)O[C@H](C[C@@H](C)[C@H]1CC(c2ccoc2)OC1=O)[C@@]1(C)C(=O)CCC2O[C@]21C (some centres not stated) | > 100 | > 100 | > 100 | > 100 | > 100 | > 100 | > 100 | – | – | – | > 100 | – | – | – | – | – | – | > 100 | – | –
13 | O=CC1CCCc2ccccc21 (configuration not stated) | > 100 | > 100 | > 100 | > 100 | > 100 | > 100 | > 61.4 | > 100 | – | – | – | – | – | – | – | – | – | – | – | –
14 | CC1(C)C2C=CC1(C)C1(CC2)OCCO1 (configuration not stated) | > 100 | > 100 | > 100 | > 100 | > 100 | > 100 | > 100 | – | – | – | > 100 | – | – | – | – | – | – | > 100 | – | –
15 | C=C(CO[Si](C)(C)C(C)(C)C)C(C)=O | > 52.4 | > 100 | 34.3 | > 56.3 | 54.7 | 27.5 | > 71 | – | – | – | 56.1 | – | – | – | – | – | – | 99.6 | – | –
16 | CCOC(=O)NC(=O)c1cn(CCCCCCOC(=O)NCCCCCCNC(=O)OCCCCCCn2cc(C(=O)NC(=O)OCC)c(=O)[nH]c2=O)c(=O)[nH]c1=O | > 100 | > 100 | > 100 | – | > 100 | > 100 | > 100 | – | – | – | – | – | – | – | – | – | – | – | – | –
17 | COC(=O)c1cc(Cl)ccc1NC(=O)c1ccc([N+](=O)[O-])cc1 | > 100 | > 100 | 38.2 | 50.3 | > 100 | 90.7 | – | – | – | – | – | – | – | – | – | – | – | – | – | –
18 | O=CN/C=C/c1ccc(O)c(O)c1 | > 100 | > 100 | > 100 | > 100 | > 100 | > 100 | > 100 | > 100 | – | – | – | – | – | – | – | – | – | – | – | –
19 | C[C@]12CCC3[C@@H](CC[C@@H]4c5nonc5CC[C@]34C)C1C/C(=N/O)C2=O (some centres not stated) | > 100 | 13.3 | > 100 | > 100 | 52 | > 100 | > 100 | > 100 | – | – | – | – | – | – | – | – | – | – | – | –
20 | CN(/N=C/c1cccc2cccnc12)c1ccccc1 | > 100 | > 100 | > 100 | > 100 | > 100 | > 100 | > 100 | > 100 | – | – | – | – | – | – | – | – | – | – | – | –
21 | COC(=O)C1=CC2C(=O)OC1CC2C#N (configuration not stated) | > 100 | > 100 | > 100 | > 100 | – | > 100 | > 100 | > 100 | – | – | – | – | – | – | – | – | – | – | – | –
22 | CC1=C2C(=CC(C)(C)C2O)C(=O)C(C)(O)C12CC2 (configuration not stated) | 0.154 | 0.0149 | 0.0388 | 0.0234 | 0.0283 | 0.0602 | 0.0621 | 0.0526 | – | – | – | – | – | – | 0.0108 | – | 0.0191 | – | – | –
